Reference: patent US20220380385A1, “PYRIMIDINE FIVE-MEMBERED NITROGEN HETEROCYCLIC DERIVATIVE, PREPARATION METHOD THEREOF AND PHARMACEUTICAL USE THEREOF” (TUOJIE BIOTECH(SHANGHAI) CO., LTD., priority 2019, published 2022)

What was measured:
[1] = In vivo pharmacokinetics in rats (gavage); set-up: species or system SD rats; conditions: original drug, rat, 5 mpk
Procedure: (§1) Rats were used as the test animals. The plasma drug concentration at different times after the rats were given the compounds of the invention by gavage was determined by using the LC/MS/MS method. The in vivo pharmacokinetic behavior of the compounds of the present invention in rats was studied, and pharmacokinetic characteristics thereof were evaluated.
Test animals: 3 healthy, 6-8 weeks old male SD rats in each group
A certain amount of drug was weighed, and 0.5% by mass of hypromellose, 0.1% by volume of Tween 80 and 99.4% by volume of water were added thereto to formulate a white suspension at 1 mg/mL.
SD rats were fasted overnight, then the drug was administered by gavage. The dosage of reference 1 was 7.5 mg/kg, and the dosage of Example 1 was 5 mg/kg.
(§2) Rats were administered the compounds of the present invention by gavage. At 0.25, 0.5, 1, 2, 4, 8 and 24 hours after administration, 0.2 mL of blood was collected from the jugular vein and placed in a test tube containing EDTA-K2. The tube was centrifuged at 4° C., 4000 rpm for 5 minutes to separate the plasma, which was stored at −75° C.
Determination of the content of the test compounds in rat plasma after administration of different concentrations of drugs by gavage: 50 μL of rat plasma at each time after administration was taken, and 200 μL of a solution of the internal standard dexamethasone in acetonitrile (50 ng/mL). The mixture was mixed by vortexing for 30 seconds, centrifuged at 4° C., 4700 rpm for 15 minutes. The supernatant of the plasma samples were collected and diluted three times with water, and 2.0 μL was taken for the LC/MS/MS analysis.

[2] = In vivo pharmacokinetics in cynomolgus monkeys (gavage); conditions: male, plasma, po, 5 mg/kg, original drug, cynomolgus monkey, 5 mpk
Procedure: as §1, with “Cynomolgus monkeys” for “Rats”, “cynomolgus monkeys” for “rats”
Test animals: 3 healthy, 2-5 years old male cynomolgus monkeys in each group;
Administration by gavage: a certain amount of drug was weighed, and 0.5% by mass of hypromellose, 0.1% by volume of Tween 80 and 99.4% by volume of water were added thereto to formulate a white suspension at 1 mg/mL.
The cynomolgus monkeys were fasted overnight, and then the drug was administered by gavage at a dose of 5 mg/kg.
as §2, with “Cynomolgus monkeys were” for “Rats were”, “the peripheral” for “the jugular”, “at 2 to 8°” for “at 4°”, “C., 2000” for “C., 4000”, “for 10” for “for 5”
Determination of the content of the test compounds in cynomolgus monkey plasma after administration of different concentrations of drugs by gavage: 55 μL of cynomolgus monkey plasma at each time after administration was taken, and 200 μL of a solution of the internal standard verapamil or dexamethasone in acetonitrile. The mixture was mixed by vortexing for 30 seconds, centrifuged at 4° C., 3900 rpm for 15 minutes. The supernatant of the plasma samples were collected and diluted three times with water, and 15 μL was taken for LC/MS/MS analysis.

[3] = molecular target: T1, full-length SHP2 (aa 1-593) (Homo sapiens, UniProt Q06124); test: Activity on SHP2 phosphatase (DiFMUP fluorescence)
T1 sequence (Q06124 1-593): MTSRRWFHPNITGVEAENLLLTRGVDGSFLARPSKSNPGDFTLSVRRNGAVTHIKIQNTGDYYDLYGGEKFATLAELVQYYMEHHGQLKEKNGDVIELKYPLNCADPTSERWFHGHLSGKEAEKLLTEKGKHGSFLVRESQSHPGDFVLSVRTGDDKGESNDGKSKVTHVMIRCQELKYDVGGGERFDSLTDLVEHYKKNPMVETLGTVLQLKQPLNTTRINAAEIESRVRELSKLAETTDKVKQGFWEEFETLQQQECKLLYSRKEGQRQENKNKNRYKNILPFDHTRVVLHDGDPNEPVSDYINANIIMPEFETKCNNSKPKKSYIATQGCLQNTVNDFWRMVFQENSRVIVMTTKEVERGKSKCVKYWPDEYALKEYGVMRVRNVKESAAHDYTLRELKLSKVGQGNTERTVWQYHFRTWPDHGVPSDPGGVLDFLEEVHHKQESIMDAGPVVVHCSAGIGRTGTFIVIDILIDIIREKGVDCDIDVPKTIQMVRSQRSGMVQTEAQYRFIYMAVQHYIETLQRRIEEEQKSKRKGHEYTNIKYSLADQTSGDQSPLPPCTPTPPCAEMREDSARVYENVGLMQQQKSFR
Procedure: 0.2 nM recombinantly expressed full-length SHP2 (aa 1-593), 0.5 nM activated polypeptide IRS1 with dual phosphorylation sites (sequence: H2N-LN(pY)IDLDLY(dPEG8)LST(pY)ASINFQK-amide), and a series of concentrations of the test compound (final concentrations of 1 μM, 0.3 μM, 0.1 μM, 0.03 μM, 0.01 μM, 0.003 μM, 0.001 M, 0.0003 μM, 0.0001 μM and 0.00003 μM) were added into the phosphatase reaction solution (60 mM HEPES, PH 7.5 0.005% Brij-35, 75 mM NaCl, 75 mM KCl, 1 mM EDTA, 5 mM DTT), followed by shaking (350 rpm) at room temperature for 30 minutes. Then the reaction substrate DiFMUP was added at a final concentration of 30 μM, and the reaction solution was reacted at room temperature for 30 minutes. Then the phosphatase reaction was stopped by adding 5 μL of the reaction stop solution (60 mM HEPES, pH 7.5, 0.2% SDS). Ex358 nm/Em455 fluorescence value was read on the fluorescence plate reader MD SpectraMax.
The IC50 value of compounds was calculated by using the four-parameter logit method. […] Different concentrations correspond to different inhibition rates of phosphatase activity. A reverse curve was plotted and the IC50 of the inhibitors was calculated from the curve. The IC50 of compounds was calculated by using Primer premier 6.0.

[4] = In vitro metabolic stability in rat liver microsomes; format: in vitro ADME; conditions: rat liver microsomes (male Wistar Han), NADPH, 37° C.; read-out: Intrinsic clearance rate
Procedure: The concentration of the compound in the reaction system was determined by LC/MS/MS, so as to calculate the intrinsic clearance rate of the test compound and to evaluate the in vitro metabolic stability in rat liver microsomes.
222.5 μL, 1.1236 mg/mL of a mixed solution of rat liver microsomes (male Wistar Han strain, purchased from Corning, catalog number 452511) and 25 μL, 10 mM of NADPH were added into the incubation plate. The mixture was mixed by vortexing for 10 seconds. The plate was incubated in a water bath at 37° C. for 8 minutes. 2.5 μL, 100 μM of the test compound or positive control was added to the incubation plate to start the reaction. The mixture was mixed by vortexing for 12 seconds, and incubated in a water bath at 37° C. The reaction was stopped by transferring 20 μL of the incubation system to a stop plate containing 100 μL of cold stop solution at 0.5, 5, 10, 15, 20 and 30 minutes. The mixture was mixed by vortexing for 2 minutes. The stop plate was centrifuged at 4000 rpm for 20 minutes, then left to stand at 4° C. for 30 minutes, and then centrifuged at 4000 rpm for 20 minutes. 40 μL of the supernatant of each compound was transferred to a 96-well injection plate, and 160 μL of pure water was added to dilute the samples.
The obtained samples were quantified by ion chromatogram, and the residual rate was calculated according to the peak area of the test compounds or positive control. The slope k was determined by linear regression of the natural logarithm of the residual rate to the incubation time by using Microsoft Excel.
The in vitro half-life (in vitro t1/2) was calculated from the slope: in vitro t1/2=−(0.693/k)
The following equation was used to convert in vitro half-life into intrinsic clearance rate (in vitro CLint, μL/min/mg protein):
in vitro CLint=(0.693/t1/2)×(incubation volume (L)/protein amount (mg))

In the case of [2H]C([2H])([2H])Nc1nccc(Sc2c(C)nc(N3CCC4(CC3)Cc3ncccc3[C@H]4N)n3ccnc23)c1Cl [Example 3, (S)-1′-(8-((3-Chloro-2-((methyl-d3)amino)pyridin-4-yl)thio)-7-methylimidazo[1,2-c]pyrimidin-5-yl)-5,7-dihydrospiro[cyclopenta[b]pyridine-6,4′-piperidin]-5-amine], the AUC ([1]; male, SD, plasma, po, 5 mg/kg, read-out: Area under curve AUC) is reported as 3820 ng·h/mL, the Cmax ([1]; male, SD, plasma, po, 5 mg/kg, read-out: Maximum blood conc. Cmax) is reported as 445 ng/mL and the “Area under curve of unit dose AUC/D” value [1] is reported as 764 ng*h/mL per mg/kg. For the same compound, the AUC ([2]; read-out: Area under curve AUC) was 72300 ng·h/mL, the Cmax ([2]; read-out: Maximum blood conc. Cmax) was 12200 ng/mL and the IC50 [3] was 4.5 nM. It also gave a microsomal CLint at 1 µM [4] of under 3 µL/min/mg.
